US6723512B2, “METHODS USING GENETIC PACKAGE DISPLAY FOR DETECTING AND IDENTIFYING PROTEIN-PROTEIN INTERACTIONS THAT FACILITATE INTERNALIZATION AND TRANSGENE EXPRESSION AND CELLS OR TISSUES COMPETENT FOR THE SAME AND METHODS FOR EVOLVING GENE DELIVERY VECTORS” (priority 1997, dated 2004)

What was measured:
COS cells [1] = test: Enhancement of EGF-phage transduction by heat shock and/or camptothecin; type: cell-based
Experimental: The effects of heat shock and another genotoxic treatment, camptothecin were tested. Camptothecin is a type I topoisomerase inhibiter that produces DNA strand breaks. Camptothecin is found to enhance transduction efficiency up to 2 fold at 0.1 μM but was inhibitory at higher concentrations (data not shown). EGF displaying phage (MG4-EGF vector) were incubated with COS cells for 24 hours at which time the cells were either not further treated, subjected to a four hour heat shock (42.5° C.), or treated with 0.1 μM camptothecin for four hours. GFP autofluorescent cells were counted at 72 hours after addition of phage.

COS cells [2] = test: Transduction of COS cells by peptide display phage (second generation screen); type: cell-based; conditions: overnight incubation, GFP cells at 72 hours, FL5 versus FN5A or FN5B, FIG. 5
Experimental: Oligonucleotides encoding the 3 peptides are inserted into the MEGFP vector as fusions to the pIII coat protein. The resulting phage are used to transfect COS cells. Phage are added to cells and incubated overnight at 37° C. in medium with 10% fetal calf serum. The cells are washed to remove unbound phage and returned to the incubator. Transduction is assessed by counting GFP expressing autofluorescent cells at 72 hours after the addition of phage.

| Compound | enhancement of targeted phage mediated transduction by camptothecin (COS cells [1]; EGF phage 24 hours, then 0.1 μM camptothecin four hours, GFP cells at 72 hours, FIG. 14) [fold] | effect of combined heat shock and camptothecin over either treatment alone (COS cells [1]; FIG. 14) | enhancement of transduction efficiency (COS cells [1]; camptothecin 0.1 μM, data not shown) | effect on transduction at higher concentrations (COS cells [1]; concentrations higher than 0.1 μM, data not shown) | transduction efficiency compared among peptide display phage (COS cells [2]) |
| --- | --- | --- | --- | --- | --- |
| CC[C@@]1(O)C(=O)OCc2c1cc1n(c2=O)Cc2cc3ccccc3nc2-1 [Camptothecin] | ~2 | modest synergistic increase | up to 2 fold | inhibitory |  |
| FVPDPYRKSR [FL5] |  |  |  |  | greater transduction efficiency |
